Assay results reported in US12692274B2, “Tetrahydroisoquinoline derivatives for the treatment of red blood disorders and inflammatory diseases” (Sanofi, priority 2020, dated 2026).
“And” between values parts separate entries of the source, which are not always exact repeats. Equal entries are not always repeated.

Columns and labels:
[1] = test system: NQO1 activation in BEAS-2B cells; assay: BEAS-2B cellular MTT assay of NQO1 activation, 0% HSA; assay type: cell-based
Outline: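 For the 0% HSA condition, cells were seeded into collagen plates in HSA-free medium. Culture was BEAS-2B in BEBM plus BEGM SingleQuots lacking GA-1000, held under 70% confluence, at a seeding density reaching 95-100% confluence by 48 h.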

[2] = test system: NQO1 activation in BEAS-2B cells; assay: BEAS-2B cellular MTT assay of NQO1 activation, 0.3% HSA; assay type: cell-based
Outline: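 MTT read-out in BEAS-2B cells grown in BEBM with SingleQuots, no GA-1000, kept below 70% confluence; plates coated with collagen, with 0.3% or 0% HSA medium, seeded to 95-100% confluency at 48 h, 37 °C, 5% CO2.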

[3] = target: HIS-Keap1 full length / Biotin-Nrf2 (16-mer) (Homo sapiens, UniProt Q14145); assay: biochemical
Chain of HIS-Keap1 full length / Biotin-Nrf2 (16-mer) (Q14145 whole entry): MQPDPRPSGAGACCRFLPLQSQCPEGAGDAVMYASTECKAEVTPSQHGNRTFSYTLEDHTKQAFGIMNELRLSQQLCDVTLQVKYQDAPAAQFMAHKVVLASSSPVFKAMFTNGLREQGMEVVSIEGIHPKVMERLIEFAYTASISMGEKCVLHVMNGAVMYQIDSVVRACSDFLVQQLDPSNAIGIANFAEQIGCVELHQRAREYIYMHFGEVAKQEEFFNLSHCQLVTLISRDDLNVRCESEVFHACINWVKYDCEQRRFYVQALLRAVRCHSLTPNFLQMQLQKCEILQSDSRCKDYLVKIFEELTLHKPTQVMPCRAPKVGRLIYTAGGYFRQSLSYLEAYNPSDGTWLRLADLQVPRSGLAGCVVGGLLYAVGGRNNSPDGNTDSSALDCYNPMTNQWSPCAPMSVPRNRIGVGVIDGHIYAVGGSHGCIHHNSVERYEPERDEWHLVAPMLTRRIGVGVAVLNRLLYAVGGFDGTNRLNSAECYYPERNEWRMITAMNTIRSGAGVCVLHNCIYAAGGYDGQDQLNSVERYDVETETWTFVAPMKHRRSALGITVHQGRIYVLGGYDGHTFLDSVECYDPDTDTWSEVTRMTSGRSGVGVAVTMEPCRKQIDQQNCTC

[4] = Homo sapiens, serum free, read-out: BEAS EC50 (nM) serum free
[5] = Homo sapiens, BEAS+, read-out: BEAS+ EC50
[6] = serum free, read-out: BEAS EC50 (nM) serum free
[7] = Homo sapiens, Serum Free W, read-out: BEAS EC50 (nM) Serum Free W
[8] = Serum Free W, read-out: BEAS EC50 (nM) Serum Free W
[9] = BEAS+ W, read-out: BEAS+ W EC50
[10] = Homo sapiens, BEAS+ W, read-out: BEAS+ W EC50

Cc1c2ccc3c1nnn3CCCCCOc1ccc(c(F)c1F)C(=O)N1CCc3ccc(cc3C1)C2CC(=O)O (stereo not drawn) [Compound 306]
EC50 [1, 4]: 68.1 nM | EC50 ([2]; BEAS+, read-out: BEAS+ EC50): 90.1 nM | EC50 [2, 5]: 134 nM | IC50 [3]: 0.1 nM and < 0.1 nM

O=C(O)CC1c2ccc3c(c2)CN(CC3)C(=O)c2ncc(cc2F)CCCCCCn2nnc3c(Cl)c1ccc32 (stereo not drawn) [Compound 224]
EC50 [1, 4]: 400 nM | EC50 [1, 6]: 296 nM | EC50 ([2]; BEAS+, read-out: BEAS+ EC50): 314 nM | EC50 [2, 5]: 320 nM | IC50 [3]: 2.1 nM and 2 nM

Cc1c2cnc3c1nnn3CCCCCCCc1ccc(cc1)C(=O)N1CCc3ccc(cc3C1)[C@H]2CC(=O)O [Compound 67]
EC50 [1, 7]: 23 nM | EC50 [1, 8]: 23.5 nM | EC50 [2, 9]: 166 nM | EC50 [2, 10]: 159 nM | IC50 [3]: 14 nM and 14.5 nM

O=C(O)CC1c2ccc3c(c2)CN(CC3)C(=O)c2ccc3c(ccn3CCCCCCn3nnc4cc1ccc43)c2 (stereo not drawn) [Compound 397]
EC50 [1, 4]: 597 nM | EC50 [1, 6]: 659 nM | EC50 ([2]; BEAS+, read-out: BEAS+ EC50): 2150 nM | EC50 [2, 5]: 1520 nM | IC50 [3]: 13.9 nM and 14.8 nM

COc1cc2ccc1CCCCCn1nnc3c(C)c(cnc31)[C@@H](CC(=O)O)c1ccc3c(c1)CN(CC3)C2=O [Compound 86]
EC50 [1, 7]: 18 nM | EC50 [1, 8]: 19.7 nM | EC50 [2, 9]: 25.7 nM | EC50 [2, 10]: 20.4 nM | IC50 [3]: 0.9 nM and 0.8 nM

O=C(O)CC1c2ccc3c(c2)CN(CC3)C(=O)c2ccc(cc2)CCCCCn2nnc3cc1ccc32 (stereo not drawn) [Compound 276]
EC50 [1, 4]: 88.5 nM | EC50 [2, 5]: 49.3 nM | IC50 [3]: 2.2 nM and 2 nM and 2.1 nM

Cc1cc2ncc1[C@H](CC(=O)O)c1ccc3c(c1)CN(CC3)C(=O)c1c(F)cc(cc1F)CCCCCO2 [Compound 120]
EC50 [1, 7]: 1.4 nM | EC50 [2, 9]: 7.6 nM and 4.6 nM and 6.3 nM | EC50 [2, 10]: 7.9 nM | IC50 [3]: 0.3 nM and 0.4 nM

Cc1c2ccc3c1nnn3CCCCC(F)(F)Oc1ccc(cc1)C(=O)N1CCc3ccc(cc3C1)C2CC(=O)O (stereo not drawn) [Compound 304]
EC50 [1, 4]: 18.3 nM | EC50 ([2]; BEAS+, read-out: BEAS+ EC50): 29 nM | EC50 [2, 5]: 25.1 nM | IC50 [3]: < 0.1 nM and 0.2 nM

Cc1c2ccc3c1nnn3CCCCCc1ccc3c(c1)cc(n3C)C(=O)N1CCc3ccc(cc3C1)[C@H]2[C@H](C)C(=O)O [Compound 114]
EC50 [1, 7]: 0.1 nM | EC50 [1, 8]: 0.2 nM | EC50 [2, 9]: 8.2 nM | EC50 [2, 10]: 9.8 nM | IC50 [3]: 0.4 nM

Cc1c2cnc3c1nnn3CCCCCc1cc(F)c(c(F)c1)C(=O)N1CCc3ccc(cc3C1)[C@H]2CC(=O)O [Compound 139]
EC50 [1, 4]: 0.2 nM | EC50 ([2]; BEAS+, read-out: BEAS+ EC50): 0.3 nM | EC50 [2, 5]: 0.2 nM | IC50 [3]: 0.1 nM

COc1cc2ccc1C(=O)N1CCc3ccc(cc3C1)[C@H](CC(=O)O)c1cnc3c(nnn3CCCCCC2)c1C [Compound 94]
EC50 [1, 7]: 36.8 nM | EC50 [1, 8]: 63.2 nM | EC50 [2, 9]: 52.3 nM | EC50 [2, 10]: 51 nM | IC50 [3]: 1.1 nM and 1.3 nM

Cc1c2ccc3c1nnn3CCCCc1ccc3c(cn(C)c3c1)C(=O)N1CCc3ccc(cc3C1)C2CC(=O)O (stereo not drawn) [Compound 359]
EC50 [1, 7]: > 1000 nM | EC50 [2, 10]: > 10000 nM | IC50 [3]: 7.4 nM and 8.1 nM

COc1cc2ccc1C(=O)N1CCc3ccc(cc3C1)[C@H](CC(=O)O)c1cnc3c(nnn3CCCCC2)c1C [Compound 89]
EC50 [1, 7]: 30.6 nM | EC50 [1, 8]: 22.8 nM | EC50 [2, 9]: 48.5 nM | EC50 [2, 10]: 38.7 nM | IC50 [3]: 0.8 nM and 0.9 nM

CC(C)(C(=O)O)C1c2ccc3c(c2)CN(CC3)C(=O)c2ccc(cc2)CCCCCCn2nnc3cc1ccc32 (stereo not drawn) [Compound 279]
EC50 [1, 4]: 10.8 nM | EC50 [2, 5]: 10.7 nM | IC50 [3]: 2.3 nM and 2.2 nM (2×) and 2.1 nM

Cc1c2ccc3c1nnn3CCCCCCn1ccc3ccc(cc31)C(=O)N1CCc3ccc(cc3C1)C2CC(=O)O (stereo not drawn) [Compound 394]
EC50 [1, 4]: 3100 nM | EC50 [1, 6]: 2900 nM | EC50 ([2]; BEAS+, read-out: BEAS+ EC50): 2860 nM | EC50 [2, 5]: 2690 nM | IC50 [3]: 9 nM and 10.4 nM

Cc1cc2ccc1C(=O)N1CCc3ccc(cc3C1)C(CC(=O)O)c1ccc(nc1)OCCCCCCO2 (stereo not drawn) [Compound 301]
EC50 [1, 4]: 80.6 nM | EC50 [1, 6]: 144 nM | EC50 ([2]; BEAS+, read-out: BEAS+ EC50): 214 nM | EC50 [2, 5]: 317 nM | IC50 [3]: 6.8 nM and 6 nM

Cc1cc2ccc1C(=O)N1CCc3ccc(cc3C1)C(CC(=O)O)c1ccc(nc1C)OCCCCC2 (stereo not drawn) [Compound 149]
EC50 [1, 4]: 74.3 nM | EC50 [1, 6]: 67.8 nM | EC50 ([2]; BEAS+, read-out: BEAS+ EC50): 89.3 nM | EC50 [2, 5]: 103 nM | IC50 [3]: 9.4 nM and 7.4 nM
